ChEMBL document CHEMBL5058564, “EUbOPEN Chemogenomics Library 2 (Incucyte)” (2022)
Where a SMILES comes first, the peptide text is derived from it. [ ]: non-standard residue; d: D form. Arg(Me) = CNC(=N)NCCC[C@H](N)C(=O)O; d3Pal = N[C@H](Cc1cccnc1)C(=O)O; azaGly = NNC(=O)O

Tests used:
Assay type in all cases: toxicity, cell-based
HEK-293T = assay: Incucyte cell viability with HEK293T; conditions: human, 10 µM, compound concentration 10 uM
Fibroblast = assay: Incucyte cell viability with human fibroblast; conditions: 10 µM, compound concentration 10 uM
U2OS = assay: Incucyte cell viability with U2OS; conditions: human, 10 µM, compound concentration 10 uM
[1] = 6 h, replicate number 1, timepoint 6 hours
[2] = 6 h, replicate number 2, timepoint 6 hours
[3] = 12 h, replicate number 1, timepoint 12 hours
[4] = 12 h, replicate number 2, timepoint 12 hours
[5] = 18 h, replicate number 1, timepoint 18 hours
[6] = 18 h, replicate number 2, timepoint 18 hours
[7] = 24 h, replicate number 1, timepoint 24 hours
[8] = 24 h, replicate number 2, timepoint 24 hours
[9] = 0 h, replicate number 1, timepoint 0 hours
[10] = 0 h, replicate number 2, timepoint 0 hours
Further: unitless GR value; below 1 slowed growth and below 0 cell loss.

Compound	Growth Rate (HEK-293T; [1])	Growth Rate (HEK-293T; [2])	Growth Rate (HEK-293T; [7])	Growth Rate (Fibroblast; [1])	Growth Rate (Fibroblast; [2])	Growth Rate (Fibroblast; [3])	Growth Rate (Fibroblast; [4])	Growth Rate (Fibroblast; [5])	Growth Rate (Fibroblast; [6])	Growth Rate (Fibroblast; [7])	Growth Rate (U2OS; [9])	Growth Rate (U2OS; [10])	Growth Rate (U2OS; [1])	Growth Rate (U2OS; [2])	Growth Rate (U2OS; [4])	Growth Rate (U2OS; [5])	Growth Rate (U2OS; [6])	Growth Rate (U2OS; [8])	Growth Rate (HEK-293T; [9])	Growth Rate (Fibroblast; [10])	other results
CC[C@H](Nc1ncnc2[nH]cnc12)c1nc2cccc(F)c2c(=O)n1-c1ccccc1 [IDELALISIB]	0.2	0.76	0.64	-0.73	0.36	-0.05	0.48	-0.04	0.59	-0.13	0.06	-0.03	0.46	0.59	0.55	0.44	0.68	0.73			Growth Rate (HEK-293T; [3]): 0.52; Growth Rate (HEK-293T; [4]): 0.57; Growth Rate (HEK-293T; [5]): 0.56; Growth Rate (HEK-293T; [6]): 0.7; Growth Rate (HEK-293T; [8]): 0.68; Growth Rate (Fibroblast; [8]): 0.75; Growth Rate (U2OS; [3]): 0.4; Growth Rate (U2OS; [7]): 0.59
O=S(=O)(c1ccccc1)c1cnc2c(N3CCNCC3)cccc2c1 [INTEPIRDINE]				0.23		0.57		0.61	0.94	0.42	-0.78			0.23	0.78		0.82	0.84	1	0.36	Growth Rate (HEK-293T; [10]): 0.98; Growth Rate (Fibroblast; [9]): 0.87; Growth Rate (Fibroblast; [8]): 0.98
COc1ccc2[nH]c(I)c(CCNC(C)=O)c2c1 [IODOMELATONIN]	0.9	0.72		0.67	0.7	0.97			0.79			-0.81		0.81	0.99	0.84	0.91	0.91			Growth Rate (HEK-293T; [10]): 0.55
CCCCC1=NC2(CCCC2)C(=O)N1Cc1ccc(-c2ccccc2-c2nnn[nH]2)cc1 [IRBESARTAN]			0.68	-0.26	0.66	-0.32	0.98	0.01		0.09		-1	0.3	0.94		0.72	0.95	0.92	0.8	0.58	Growth Rate (HEK-293T; [10]): 0.31; Growth Rate (HEK-293T; [5]): 0.86; Growth Rate (Fibroblast; [9]): 0.38; Growth Rate (U2OS; [3]): 0.97; Growth Rate (U2OS; [7]): 0.87
c1cc(OCCCN2CCCCC2)ccc1CN1CCCCC1 [JNJ-5207852]		0.82		0.31			0.6			0.68	-0.13			0.76	0.92		0.94				Growth Rate (Fibroblast; [9]): 0.03
CNC(=N)NCCC[C@H](NC(=O)[C@H](CC(C)C)NC(=O)NNC(=O)[C@H](Cc1ccccc1)NC(=O)[C@H](CO)NC(=O)[C@H](CC(N)=O)NC(=O)[C@@H](Cc1cccnc1)NC(=O)[C@H](N)Cc1ccc(O)cc1)C(=O)NCC(N)=O [KISS1-543] (H-[dY][d3Pal]NSF[azaGly]L[Arg(Me)]G-NH2)	0.69		0.71		0.8	0.41		0.5	0.76	0.46		0.72	0.84		0.89		0.99	1	0.75	0.66	Growth Rate (HEK-293T; [10]): 0.71; Growth Rate (HEK-293T; [3]): 0.68; Growth Rate (HEK-293T; [5]): 0.68; Growth Rate (HEK-293T; [8]): 0.84; Growth Rate (Fibroblast; [8]): 0.72
CCCCCCNC(=O)Nc1ccc(S(=O)(=O)Nc2ccc(CCNC[C@H](O)COc3ccc(O)cc3)cc2)cc1 [L-755507]		0.53		0.91	-0.46		0.47						0.25	0.75	0.7	0.87	0.79	0.89	0.4	0.79	Growth Rate (HEK-293T; [4]): 0.94; Growth Rate (Fibroblast; [9]): 0.5; Growth Rate (U2OS; [3]): 0.32; Growth Rate (U2OS; [7]): 0.87
CCC(=O)N1CC[C@H](Nc2ncnc3c2CN(c2cnc(OC)c(C(F)(F)F)c2)CC3)C1 [LENIOLISIB]	0.27	-0.14	0.96	-0.68	0.91	0.26		0.75		0.72	0.57	0.52	0.65	0.66	0.58	0.83	0.79	0.79			Growth Rate (HEK-293T; [3]): 0.69; Growth Rate (HEK-293T; [4]): 0.28; Growth Rate (HEK-293T; [5]): 0.81; Growth Rate (HEK-293T; [6]): 0.66; Growth Rate (HEK-293T; [8]): 0.71; Growth Rate (U2OS; [7]): 0.81
C[C@H](CCC(=O)O)[C@H]1CC[C@H]2[C@@H]3CC[C@@H]4C[C@H](O)CC[C@]4(C)[C@H]3CC[C@]12C [LITHOCHOLIC ACID]	0.39		0.76	0.65		0.42	0.98	0.36	0.98	0.22	0.9	0.03		0.51	0.77	0.78	0.79	0.75	0.8	0.62	Growth Rate (HEK-293T; [10]): 0.75; Growth Rate (HEK-293T; [3]): 0.56; Growth Rate (HEK-293T; [4]): 0.96; Growth Rate (HEK-293T; [5]): 0.75; Growth Rate (HEK-293T; [8]): 0.86; Growth Rate (Fibroblast; [8]): 0.78; Growth Rate (U2OS; [3]): 0.79; Growth Rate (U2OS; [7]): 0.96
Cc1ccc(F)cc1C(=O)Nc1ccc(C(=O)N2Cc3cccn3Cc3ccccc32)c(Cl)c1 [LIXIVAPTAN]				0.63	0.2		0.59		0.75	0.45	-0.09		0.32	0.89			0.89	0.94	0.91		Growth Rate (Fibroblast; [9]): -0.13; Growth Rate (U2OS; [7]): 0.9
CC(C)CC(=O)Nc1cncc(-c2ccc3[nH]nc(-c4nc5c(-c6cccc(F)c6)cncc5[nH]4)c3c2)c1 [LORECIVIVINT]	-0.81	-0.95	-0.44	-0.2	-0.06	0.36	-0.03	0.73	0.01	0.43	-0.33	-0.94	-0.82	-0.16	0.32	-0.16	0.98			0.49	Growth Rate (HEK-293T; [3]): -0.55; Growth Rate (HEK-293T; [4]): -0.81; Growth Rate (HEK-293T; [5]): -0.48; Growth Rate (HEK-293T; [6]): -0.64; Growth Rate (HEK-293T; [8]): -0.57; Growth Rate (Fibroblast; [8]): -0.02; Growth Rate (U2OS; [3]): -0.56; Growth Rate (U2OS; [7]): 0.71
CC(=O)NCCc1c(Cc2ccccc2)[nH]c2ccccc12 [LUZINDOLE]		0.58		0.87		0.94					0.42		0.72	0.96	0.87		0.76	0.88		0.86	Growth Rate (HEK-293T; [3]): 0.96
N[C@@]1(C(=O)O)CO[C@H]2[C@H](C(=O)O)[C@H]21 [LY-379268]		0.88			0.16		0.66				-0.44	-0.79		0.99			0.92		0.68	0.44	Growth Rate (HEK-293T; [10]): 0.79
COc1ccc2[nH]cc(CCNC(C)=O)c2c1 [MELATONIN]	0.93		0.94									0.55					0.85	0.97	0.52	0.06	Growth Rate (HEK-293T; [10]): 0.8; Growth Rate (Fibroblast; [9]): 0.91
